For experiment [1], the target named is T1, Progestin Receptor (Oryctolagus cuniculus, UniProt P06186).
T1 construct: The high speed supernatant fraction was used as the receptor preparation; from tissue; host or cells: uterus of New Zealand rabbits, 200,000×g supernatant (cytosol)
T1 sequence (P06186 1-930): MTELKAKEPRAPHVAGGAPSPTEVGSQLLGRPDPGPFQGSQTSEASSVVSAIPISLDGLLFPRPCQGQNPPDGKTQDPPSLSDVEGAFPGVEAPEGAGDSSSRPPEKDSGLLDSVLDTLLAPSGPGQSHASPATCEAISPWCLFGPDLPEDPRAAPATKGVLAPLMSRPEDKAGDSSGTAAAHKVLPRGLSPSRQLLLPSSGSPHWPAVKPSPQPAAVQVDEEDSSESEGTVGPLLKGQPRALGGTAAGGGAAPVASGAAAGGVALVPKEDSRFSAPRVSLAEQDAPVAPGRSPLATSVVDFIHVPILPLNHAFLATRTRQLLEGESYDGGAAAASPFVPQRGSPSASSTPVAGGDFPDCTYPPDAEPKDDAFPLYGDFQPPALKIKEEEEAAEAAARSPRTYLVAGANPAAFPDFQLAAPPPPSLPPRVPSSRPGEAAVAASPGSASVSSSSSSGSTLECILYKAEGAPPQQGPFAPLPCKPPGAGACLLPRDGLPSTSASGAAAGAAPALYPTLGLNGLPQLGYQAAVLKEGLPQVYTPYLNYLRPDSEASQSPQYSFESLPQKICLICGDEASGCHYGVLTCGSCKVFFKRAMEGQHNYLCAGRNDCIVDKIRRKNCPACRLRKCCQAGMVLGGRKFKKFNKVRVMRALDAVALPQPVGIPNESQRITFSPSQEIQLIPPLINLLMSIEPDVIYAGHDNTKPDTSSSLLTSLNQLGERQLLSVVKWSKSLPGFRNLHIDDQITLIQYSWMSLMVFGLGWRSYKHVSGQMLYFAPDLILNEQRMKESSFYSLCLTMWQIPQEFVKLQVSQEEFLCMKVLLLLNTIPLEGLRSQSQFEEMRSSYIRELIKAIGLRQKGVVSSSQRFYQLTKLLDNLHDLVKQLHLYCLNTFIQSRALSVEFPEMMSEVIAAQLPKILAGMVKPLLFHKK
The experiment in a line: Progestin Receptor Binding (competitive binding, 3H-promegestone, rabbit uterus receptor preparation). Details: species or system New Zealand rabbits. The conditions noted are these: 3H-promegestone displacement, 4° C., 18 h. As to the method:
Progestin Receptor Binding
The procedure used was essentially that of J. L. McGuire, C.
Uteri from New Zealand rabbits (1.5 to 2.5 kg) were placed in a cold buffer A (0.01 mol Tris-HCl, pH 8.0, 0.001 mol EDTA, 0.25 mol sucrose). The uteri were minced, washed and homogenized in cold buffer A. The homogenate (2 g wet tissue/mL buffer) was centrifuged at 200,000×g for 1 h at 4° C. The high speed supernatant fraction was used as the receptor preparation.
A competitive binding assay was performed by mixing 3H-promegestone with the receptor preparation and adding a known amount of unlabeled compound. This mixture was incubated at 4° C. for 18 h. The compounds bound to the receptor were separated from those which were free in solution using dextran coated charcoal and the amount of isotope bound to the receptor was determined by scintillation counting. The extent of the compound's interaction with the receptor is measured as the percent reduction in the total isotope bound caused by the unlabeled test compound as compared to the control levels. The receptor screen consists of measuring the reduction in the total isotope bound caused by the unlabeled test compound at […] final concentrations.

The test system of experiment [2] is T47D human breast carcinoma cells. The experiment in a line: Assay to Demonstrate Ability to Increase Breast Cell Proliferation ([3H]-thymidine incorporation). It is filed as cell-based. To be noted: at the concentration of the same table line, control level set at 100%. As to the method:
This assay is used to measure the sex steroid effects of compounds. The activity of compounds in this assay is an indication of their potential use as replacements for naturally occuring hormones in individuals with sex hormone deficiencies.
T47D human breast carcinoma cells are grown in 96-well plates in phenol-red free nutrient media at 37° C. for 48 hours. Conditioned media is removed and replaced with fresh media containing test compounds dissolved in DMSO (0.1% final concentration) and the cells are incubated for an additional 18-20 hours at 37° C. [^3 H]-thymidine is added to each well and allowed to incorporate into DNA for 4 hours. Unlabeled thymidine is then added to terminate the reaction, and the cultures are then washed, trypsinized and harvested. The amount of [^3 H]-thymidineincorporated into DNA is determined by liquid scintillation. Data for each well are expressed as a percent above control level, which is set at 100%. The concentration at which maximal deviation from control is found and the magnitude of that percent deviation is reported. Table T lists the data for some of the compounds of this invention.

Experiment [3] has as its system endometrial proliferation. The experiment in a line: Assay to Determine Effect of Compound on Uterine Proliferation (Clauberg Test). The experiment is classed as in vivo, immature female white rabbits. The conditions noted are these: 40 mg/kg subcutaneously; scale 0 (no response)-4 (maximum response); estradiol-primed immature rabbits, daily for five days. The protocol: Assay to Determine Effect of Compound on Uterine Proliferation
The procedure used was essentially that of M. K. McPhail, J. Physiology, 83, 145 (1934). Groups of immature female white rabbits (750-950 g) were primed with a daily subcutaneous injection, for 6 days, with 5 micrograms of 17β-estradiol in 0.2 ml of sesame oil. Starting on the 7th day, they received the test compound daily for five days in the appropriate vehicle. The rabbits were sacrificed approximately 24 hours after the last administration, and the uteri were excised, cleaned and weighed. Portions of both uterine horns were fixed in 10% neutral formalin, sectioned at […] and stained with hematoxylin and eosin. Progestational activity was assessed as in the McGinty Test. The evaluation for endometrial proliferation was made according to a McPhail Index. Each slide was graded for each rabbit on a 0 (no response)-4 (maximum response) scale.

`CCC[C@]12Cc3ccccc3C1=C[C@@H](C)c1ccc(OC)cc1C2` (relative stereo) [Compound 38] yielded a 50% inhibitory concentration (IC50) in experiment [1] of 25 nM. Besides, in experiment [2], the “% control (magnitude of maximal deviation from control)” value was 189%. The “McPhail Index” value in experiment [3] is listed as 4.
`CCC[C@]12Cc3ccccc3C1=C[C@@H](C)c1ccc(N)cc1C2` (relative stereo) [Compound 85] yielded an IC50 in experiment [1] of 19 nM. Also, in experiment [2], the “% control (magnitude of maximal deviation from control)” value was 215%.
The corresponding values for `CCCC12Cc3cc(OC)ccc3CC=C1c1ccccc1C2` (stereo not shown) [Compound 27] are 27 nM and 224%.
For the molecule `COc1ccc2c(c1)CC1(C)Cc3cc(F)ccc3C1=CC2C` (stereo not shown) [Compound 30, 2-Fluoro-6,11,11a,12-tetrahydro-9-methoxy-6,11a-dimethyldibenz[a,f]azulene], in experiment [1], the IC50 is 6 nM. In addition, the “% control (magnitude of maximal deviation from control)” value in experiment [2] is 204%.
For `CCC12Cc3cc(OC)ccc3CC=C1c1ccccc1C2` (stereo not shown) [Compound 43] the same measures were 57 nM and 151%.
`COc1ccc2c(c1)CC1(C)Cc3cc(F)ccc3C1C(O)C2C` (stereo not shown) [Compound 45]: the IC50 in experiment [1] amounted to 115 nM. For the same molecule, in experiment [2], the “% control (magnitude of maximal deviation from control)” value stood at 191%.
In turn, `CCC12Cc3ccccc3C(C)CC1c1ccccc1C2` (stereo not shown) [Compound 53] returned a 50% inhibitory concentration (IC50) in experiment [1] of 57 nM. Moreover, in experiment [2], the “% control (magnitude of maximal deviation from control)” value was 50%.
In experiment [1], `CC1CC2c3ccc(F)cc3CC2(C)Cc2cc(Oc3nnnn3-c3ccccc3)ccc21` (stereo not shown) [Compound 63, 6,11a-Dimethyl-2-fluoro-9-(1-phenyl-5-tetrazolyl)-oxy-4b,5,6,11,11a,12-hexahydrodibenz[a,f]azulene] gave an IC50 of 55 nM. Further, the “% control (magnitude of maximal deviation from control)” value in experiment [2] was 94%.
`CC1CC2c3ccc(F)cc3CC2(C)Cc2ccccc21` (stereo not shown) [Compound 69, 6,11a-Dimethyl-2-fluoro-4b,5,6,11,11a,12-hexahydrodibenz[a,f]azulene] yielded an IC50 in experiment [1] of 37 nM.
In the case of `Cc1ccc2c(c1)CC1(C)Cc3ccccc3C1=CC2` (stereo not shown) [Compound 70], in experiment [1], the half-maximal inhibitory concentration (IC50) turned out to be 42 nM. For the same molecule, the “% control (magnitude of maximal deviation from control)” value in experiment [2] was determined as 173%.
In turn, `COc1ccc2c(c1)CC1(C)Cc3cc(OC)ccc3C1C(=O)C2` (stereo not shown) [Compound 75] returned an IC50 in experiment [1] of 555 nM.
As for `COc1ccc2c(c1)CC1(C)Cc3cc(OC)ccc3C1C(O)C2C` (stereo not shown) [Compound 78], the “% control (magnitude of maximal deviation from control)” value in experiment [2] is reported as 112%.
Turning to `COc1cc2c(cc1[N+](=O)[O-])C(C)C(O[N+](=O)[O-])C1c3ccccc3CC1(C)C2` (stereo not shown) [Compound 81, 5-(6,11a,-Dimethyl-9-methoxy-8-nitro-4b,5,6,11,11a,12-hexahydro)dibenz[a,f]azulenyl nitrate ester], the concentration for half-maximal inhibition (IC50) in experiment [1] came out at 82 nM. The “% control (magnitude of maximal deviation from control)” value in experiment [2] is reported as 56%.
Turning to `COc1ccc2c(c1[N+](=O)[O-])CC1(C)Cc3ccccc3C1C(O[N+](=O)[O-])C2C` (stereo not shown) [Compound 82, 5-(6,11a-Dimethyl-9-methoxy-10-nitro-4b-5,6,11,11a,12-hexahydro)dibenz[a,f]azulenyl nitrate ester], the IC50 in experiment [1] was 99 nM.
As to `CC(=O)Nc1ccc2c(c1)CC1(C)Cc3ccccc3C1=CC2C` (stereo not shown) [Compound 83, 9-Acetamido-6,11,11a,12-tetrahydro-6,11a-dimethyldibenz[a,f]azulene], the half-inhibitory concentration (IC50) in experiment [1] was determined as 1970 nM.
In turn, `CC1CC2c3ccccc3CC2(C)Cc2cc(F)ccc21` (stereo not shown) [Compound 88, 6,11a-Dimethyl-9-fluoro-4b,5,6,11,11a,12-hexahydrodibenz[a,f]azulene] displayed a 50% inhibitory concentration (IC50) in experiment [1] of 34 nM. The “% control (magnitude of maximal deviation from control)” value in experiment [2] stood at 187%.
Regarding `CC1CC2c3ccccc3CC2(C)Cc2cc(N)ccc21` (stereo not shown) [Compound 89, 9-Amino-6,11a-dimethyl-4b,5,6,11,11a,12-hexahydrodibenz[a,f]azulene], the half-maximal inhibitory concentration (IC50) in experiment [1] worked out at 137 nM.
In experiment [1], `CC(=O)Nc1cc2c(cc1[N+](=O)[O-])C(C)CC1c3ccccc3CC1(C)C2` (stereo not shown) [Compound 91] gave a concentration for half-maximal inhibition (IC50) of 115 nM.
Consider `CC(=O)Nc1ccc2c(c1)CC1(C)Cc3ccccc3C1=CC2` (stereo not shown) [Compound 95], for which the 50% inhibitory concentration (IC50) in experiment [1] turned out to be 1770 nM.
`CC12Cc3ccccc3C1CCc1c(N)cccc1C2` (stereo not shown) [Compound 96] registered an IC50 in experiment [1] of 34 nM.
Still for that read-out and setting: with `CC12Cc3ccccc3C1CCc1c(F)cccc1C2` (stereo not shown) [Compound 98] the figure was 60 nM; with `CC1CC2c3ccccc3CC2(C)Cc2c1cc([N+](=O)[O-])c(O)c2[N+](=O)[O-]` (stereo not shown) [Compound 101, 4b,5,6,11,11a,12-Hexahydro-9-hydroxy-6,11a-dimethyl-8,10-dinitrodibenz[a,f]azulene], 621 nM.
Same read-out and setting: in the case of `COc1cc2c(cc1[N+](=O)[O-])C(C)CC1c3ccccc3CC1(C)C2` (stereo not shown) [Compound 102, 4b,5,6,11,11a,12-Hexahydro-9-methoxy-6,11a-dimethyl-8-nitro-dibenz[a,f]azulene] it was 1470 nM; in that of `C=C1C=C2c3ccccc3CC2(C)Cc2cc(OC)ccc21` (stereo not shown) [Compound 105, 6,11,11a,12-Tetrahydro-6-methenyl-9-methoxy-11a-methyldibenz[a,f]azulene], 676 nM.
Still for that read-out and setting: in the case of `COc1ccc2c(c1)CC1(C)Cc3ccccc3C1=CC2C` (stereo not shown) [Compound 106, 6,11,11a,12-Tetrahydro-9-methoxy-6,11a-dimethyldibenz[a,f]-azulene] it was 105 nM.
In the case of `COc1ccc2c(c1)CC1(C)Cc3ccccc3C1CC2C` (stereo not shown) [Compound 107, 4b,5,6,11,11a,12-Hexahydro-9-methoxy-6,11a-dimethyldibenz-[a,f]azulene], the IC50 in experiment [1] was 678 nM.
For the molecule `CC(=O)Oc1cccc2c1CCC1c3ccccc3CC1(C)C2` (stereo not shown) [Compound 108], the IC50 in experiment [1] worked out at 29 nM.
In turn, `CC(=O)Oc1cccc2c1CC=C1c3ccc(F)cc3CC1(C)C2` (stereo not shown) [Compound 113] showed an IC50 in experiment [1] of 6 nM. In addition, the “% control (magnitude of maximal deviation from control)” value in experiment [2] was 470%.
With `COc1ccc2c(c1)CC1(C)Cc3cccc(OC(C)=O)c3CC=C21` (stereo not shown) [Compound 117], the half-maximal inhibitory concentration (IC50) in experiment [1] was 93 nM. In addition, the “% control (magnitude of maximal deviation from control)” value in experiment [2] amounted to 160%.

(Values after US5834521A, “Substituted dibenz (A F)azulenes and methods of preparation” (Ortho Pharmaceutical Corporation, priority 1996, dated 1998).)
